What all share (assay): relative viability (nuclei count vs DMSO), 5 days (fraction); higher = more cells survive
Compound in test [1]: C1COCCN1C2=NC(=NC3=C2OC4=C3C=CC=N4)C5=CC(=CC=C5)NC(=O)C6=CN=C(C=C6)N + COc1cccc2cc(-c3nc([C@H]4CC[C@H](C(=O)O)CC4)n4ncnc(N)c34)[nH]c12 [OSI-027] (partner 0.5 µM)
The method in brief:
(§1)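 Values are medians from duplicate plates. Each reflects relative viability, defined as the nuclei count of treated wells over that of vehicle wells. Lung cancer cell lines in 1536-well plates were pin-tool dosed one day after seeding with one drug alone or with a fixed anchor-drug dose plus five library-drug doses (not always all listed) in √10 steps, then fixed, stained and imaged at 4× after 5 days.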

Compound in the test “SGI-1776 + Trametinib”: CN1CCC(CNc2ccc3ncc(-c4cccc(OC(F)(F)F)c4)n3n2)CC1 [SGI-1776] + CC(=O)Nc1cccc(-n2c(=O)n(C3CC3)c(=O)c3c(Nc4ccc(I)cc4F)n(C)c(=O)c(C)c32)c1 [Trametinib] (partner 0.02 µM)
The method in brief:
as §1

Compound in the test “Entinostat + Navitoclax”: Nc1ccccc1NC(=O)c1ccc(CNC(=O)OCc2cccnc2)cc1 [Entinostat] + CC1(C)CCC(c2ccc(Cl)cc2)=C(CN2CCN(c3ccc(C(=O)NS(=O)(=O)c4ccc(N[C@H](CCN5CCOCC5)CSc5ccccc5)c(S(=O)(=O)C(F)(F)F)c4)cc3)CC2)C1 [Navitoclax] (partner 0.5 µM)
The essentials: as §1

Compound in the test “Entinostat + Olaparib”: Nc1ccccc1NC(=O)c1ccc(CNC(=O)OCc2cccnc2)cc1 [Entinostat] + O=C(c1cc(Cc2n[nH]c(=O)c3ccccc23)ccc1F)N1CCN(C(=O)C2CC2)CC1 [Olaparib] (partner 8 µM)
The method in brief:
as §1

Turning to UMC-11, the relative viability amounted to 0.443 in test [1] (first compound 0.02 µM); 0.511 in test [1] (first compound 0.06325 µM); 0.46 in test [1] (first compound 0.2 µM); 0.406 in test [1] (first compound 0.6325 µM); 0.375 in test [1] (first compound 2 µM); 0.719 with SGI-1776 + Trametinib (first compound 0.08 µM). Also, the relative viability was 0.684 with SGI-1776 + Trametinib (first compound 0.8 µM); 0.787 with SGI-1776 + Trametinib (first compound 2.53 µM); 0.432 in the test with SGI-1776 + Trametinib (first compound 8 µM); 0.29 in the test with Entinostat + Navitoclax (first compound 0.02 µM); 0.302 with Entinostat + Navitoclax (first compound 0.06325 µM); 0.25 with Entinostat + Navitoclax (first compound 0.2 µM). Besides, the relative viability with Entinostat + Navitoclax (first compound 0.6325 µM) was found to be 0.117; with Entinostat + Navitoclax (first compound 2 µM), 0.115; with Entinostat + Olaparib (first compound 0.02 µM) it was 0.376; in the test with Entinostat + Olaparib (first compound 0.06325 µM) it was 0.345; in the test with Entinostat + Olaparib (first compound 0.2 µM), 0.242; in the test with Entinostat + Olaparib (first compound 0.6325 µM) it was 0.116. In addition, the relative viability with Entinostat + Olaparib (first compound 2 µM) came to 0.0922.

Source of the values: the supplement of paper PMC10307832.
